Source: the supplement of paper PMC10307832

Legend:
Test in all cases: relative viability (nuclei count vs DMSO), 5 days (fraction); higher = more cells survive
A549 = tested on: A549
Procedure, shortened: (§1)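 Lung cancer cell lines in 1536-well plates were dosed by pin tool the day after seeding, either with one drug alone or with a fixed anchor-drug dose plus five library-drug doses (not always all listed) in √10 steps. After 5 days, cells were fixed and their nuclei stained in one step (final 0.05% Triton X-100, 1% formaldehyde, 1 ug/ml Hoechst), then counted on 4× images. Relative viability is the nuclei count in treated wells divided by that in vehicle wells. Values are medians of duplicate plates.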

Calu-6 = tested on: Calu-6
Procedure, shortened: as §1

EBC-1 = tested on: EBC-1
Procedure, shortened: as §1

HCC-366 = tested on: HCC-366
Procedure, shortened: as §1

HCC-44 = tested on: HCC-44
Procedure, shortened: as §1

IA-LM = tested on: IA-LM
Procedure, shortened: as §1

LOU-NH91 = tested on: LOU-NH91
Procedure, shortened: as §1

NCI-H1299 = tested on: NCI-H1299
Procedure, shortened: as §1

NCI-H1437 = tested on: NCI-H1437
Procedure, shortened: as §1

NCI-H1703 = tested on: NCI-H1703
Procedure, shortened: as §1

NCI-H2085 = tested on: NCI-H2085
Procedure, shortened: as §1

NCI-H3122 = tested on: NCI-H3122
Procedure, shortened: as §1

With `COc1nc(C)cnc1NS(=O)(=O)c1cccnc1-c1ccc(-c2nnco2)cc1` [Zibotentan] + C[C@]1(O)C[C@@H](c2nc(-c3ccc4ccc(-c5ccccc5)nc4c3)c3c(N)nccn32)C1 [Linsitinib] (partner 1 µM) the relative viability (A549; first compound 0.08 µM) was 0.578, the relative viability (A549; first compound 0.253 µM) was 0.539 and the relative viability (A549; first compound 0.8 µM) was 0.589. It also gave a relative viability (A549; first compound 2.53 µM) of 0.642, a relative viability (Calu-6; first compound 0.08 µM) of 0.996 and a relative viability (Calu-6; first compound 0.253 µM) of 0.885. The relative viability (Calu-6; first compound 0.8 µM) was 0.966, the relative viability (Calu-6; first compound 2.53 µM) was 0.922 and the relative viability (EBC-1; first compound 0.08 µM) was 0.816. It also gave a relative viability (EBC-1; first compound 0.253 µM) of 0.986, a relative viability (EBC-1; first compound 0.8 µM) of 0.934 and a relative viability (EBC-1; first compound 2.53 µM) of 0.915. It also gave a relative viability (HCC-366; first compound 0.08 µM) of 0.7, a relative viability (HCC-366; first compound 0.253 µM) of 0.586 and a relative viability (HCC-366; first compound 0.8 µM) of 0.518. The relative viability (HCC-366; first compound 2.53 µM) was 0.794, the relative viability (HCC-44; first compound 0.08 µM) was 0.759 and the relative viability (HCC-44; first compound 0.253 µM) was 0.614. It also gave a relative viability (HCC-44; first compound 0.8 µM) of 0.747, a relative viability (HCC-44; first compound 2.53 µM) of 0.703 and a relative viability (IA-LM; first compound 0.08 µM) of 0.627. It also gave a relative viability (IA-LM; first compound 0.253 µM) of 0.743, a relative viability (IA-LM; first compound 0.8 µM) of 0.778 and a relative viability (IA-LM; first compound 2.53 µM) of 0.456. It also gave a relative viability (LOU-NH91; first compound 0.08 µM) of 0.94, a relative viability (LOU-NH91; first compound 0.253 µM) of 0.836 and a relative viability (LOU-NH91; first compound 0.8 µM) of 0.982. The relative viability (LOU-NH91; first compound 2.53 µM) was 1.02, the relative viability (NCI-H1299; first compound 0.08 µM) was 0.938 and the relative viability (NCI-H1299; first compound 0.253 µM) was 1.01. It also gave a relative viability (NCI-H1299; first compound 0.8 µM) of 0.984, a relative viability (NCI-H1299; first compound 2.53 µM) of 0.987 and a relative viability (NCI-H1437; first compound 0.08 µM) of 1.21. It also gave a relative viability (NCI-H1437; first compound 0.253 µM) of 1, a relative viability (NCI-H1437; first compound 0.8 µM) of 0.939 and a relative viability (NCI-H1437; first compound 2.53 µM) of 1.07. It also gave a relative viability (NCI-H1703; first compound 0.08 µM) of 0.655, a relative viability (NCI-H1703; first compound 0.253 µM) of 0.718 and a relative viability (NCI-H1703; first compound 0.8 µM) of 0.865. The relative viability (NCI-H1703; first compound 2.53 µM) was 0.167, the relative viability (NCI-H2085; first compound 0.08 µM) was 0.852 and the relative viability (NCI-H2085; first compound 0.253 µM) was 0.818. It also gave a relative viability (NCI-H2085; first compound 0.8 µM) of 0.944, a relative viability (NCI-H2085; first compound 2.53 µM) of 0.944 and a relative viability (NCI-H3122; first compound 0.08 µM) of 0.983. The relative viability (NCI-H3122; first compound 0.253 µM) was 0.972, the relative viability (NCI-H3122; first compound 0.8 µM) was 1 and the relative viability (NCI-H3122; first compound 2.53 µM) was 0.963.

In the case of `COc1nc(C)cnc1NS(=O)(=O)c1cccnc1-c1ccc(-c2nnco2)cc1` [Zibotentan] + Cc1nc(NC(=O)N2CCC[C@H]2C(N)=O)sc1-c1ccnc(C(C)(C)C(F)(F)F)c1 [Alpelisib] (partner 2 µM), the relative viability (A549; first compound 0.08 µM) is reported as 0.852, the relative viability (A549; first compound 0.253 µM) is reported as 0.578 and the relative viability (A549; first compound 0.8 µM) is reported as 0.704. The relative viability (A549; first compound 2.53 µM) was 0.88, the relative viability (Calu-6; first compound 0.08 µM) was 1 and the relative viability (Calu-6; first compound 0.253 µM) was 0.986. The relative viability (Calu-6; first compound 0.8 µM) was 0.98, the relative viability (Calu-6; first compound 2.53 µM) was 1.1 and the relative viability (EBC-1; first compound 0.08 µM) was 0.826. For the same compound, the relative viability (EBC-1; first compound 0.253 µM) was 0.855, the relative viability (EBC-1; first compound 0.8 µM) was 0.944 and the relative viability (EBC-1; first compound 2.53 µM) was 0.857. It also gave a relative viability (HCC-366; first compound 0.08 µM) of 0.561, a relative viability (HCC-366; first compound 0.253 µM) of 0.373 and a relative viability (HCC-366; first compound 0.8 µM) of 0.474. The relative viability (HCC-366; first compound 2.53 µM) was 0.497, the relative viability (HCC-44; first compound 0.08 µM) was 0.932 and the relative viability (HCC-44; first compound 0.253 µM) was 0.768. It also gave a relative viability (HCC-44; first compound 0.8 µM) of 0.842, a relative viability (HCC-44; first compound 2.53 µM) of 0.842 and a relative viability (IA-LM; first compound 0.08 µM) of 0.799. The relative viability (IA-LM; first compound 0.253 µM) was 0.725, the relative viability (IA-LM; first compound 0.8 µM) was 0.646 and the relative viability (IA-LM; first compound 2.53 µM) was 0.812. For the same compound, the relative viability (LOU-NH91; first compound 0.08 µM) was 0.749, the relative viability (LOU-NH91; first compound 0.253 µM) was 0.696 and the relative viability (LOU-NH91; first compound 0.8 µM) was 0.785. For the same compound, the relative viability (LOU-NH91; first compound 2.53 µM) was 0.702, the relative viability (NCI-H1299; first compound 0.08 µM) was 1.06 and the relative viability (NCI-H1299; first compound 0.253 µM) was 1.05. The relative viability (NCI-H1299; first compound 0.8 µM) was 1.06, the relative viability (NCI-H1299; first compound 2.53 µM) was 1.07 and the relative viability (NCI-H1437; first compound 0.08 µM) was 0.949. The relative viability (NCI-H1437; first compound 0.253 µM) was 0.867, the relative viability (NCI-H1437; first compound 0.8 µM) was 0.913 and the relative viability (NCI-H1437; first compound 2.53 µM) was 0.973. The relative viability (NCI-H1703; first compound 0.08 µM) was 0.363, the relative viability (NCI-H1703; first compound 0.253 µM) was 0.386 and the relative viability (NCI-H1703; first compound 0.8 µM) was 0.464. For the same compound, the relative viability (NCI-H1703; first compound 2.53 µM) was 0.237, the relative viability (NCI-H2085; first compound 0.08 µM) was 0.93 and the relative viability (NCI-H2085; first compound 0.253 µM) was 0.939. It also gave a relative viability (NCI-H2085; first compound 0.8 µM) of 1.06, a relative viability (NCI-H2085; first compound 2.53 µM) of 0.932 and a relative viability (NCI-H3122; first compound 0.08 µM) of 0.801. It also gave a relative viability (NCI-H3122; first compound 0.253 µM) of 0.773, a relative viability (NCI-H3122; first compound 0.8 µM) of 0.76 and a relative viability (NCI-H3122; first compound 2.53 µM) of 0.822.
